Source: patent US7262215B2, “N-carbacycle monosubstituted indolocarbazoles as protein kinase inhibitors” (NAD AG, priority 2001, dated 2007)

Assays:
Type in all cases: biochemical
Conditions in all cases: 10 μM compound; NA = not active
His tagged ERK2 = His tagged ERK2 (Homo sapiens, UniProt P28482); test: Extracellular signal Regulated Kinase 2 inhibition assay (ERK2), radioactivity-based
Procedure: Inhibition of Extracellular Signal Regulated Kinase 2 (ERK 2) Activity
(§1) The ERK2 kinase activity assay utilizes a radioactivity-based format in a 96-well PCR plate with radioactive readout. The ERK2 activity was assayed in a 25 μL assay mixture containing 25 mM HEPES (pH 7.0), 250 μM ATP, […], 1 mM DTT, 2% DMSO, 150 ng/mL Myelin Basic Protein (MBP, Sigma M-1891), and 13.6 ng/mL His tagged ERK2 (specific activity=38.1 nmol/min*mg). Compounds were screened for inhibition of the ERK2 kinase activity at a concentration of 10 μM. The kinase reaction was allowed to proceed at 37° C. for 30 minutes, then reaction was stopped by the addition of 5 μL of 0.5M EDTA (pH 8). 15 μL of each solution were then spotted onto the corresponding square of a filtermat (8×12 glassfibre mat 90×120 mm. PE-Wallac 1450–421). The filtermat was allowed to dry and washed once with 10% TCA, 2% PPA, 500 mM NaCl each for 30 minutes at rt. Two further washings in 10% TCA and 2% PPA for 30 minutes were performed, then a final 30 minute wash in 99% EtOH at rt was done and the filtermat was air dried. The dry filtermat was then placed in a sample bag with a Meltilex sheet (Melt-on scintillator sheets […], PE-Wallac 1450–441 for filtermat A) over the filtermat. The bag was trimmed to fit into the microplate heatsealer (PE-Wallac 1495–021). The heatsealer is used to melt the Meltilex on the filtermat. The bag containing the filtermat and the melted Meltilex was then placed into a filter cassette and counted using the Microbeta Jet Scintillation and Luminescence Counter PE-Wallac 1450.

[1] = molecular target: T1, PKA (catalytic subunit, bovine heart) (Bos taurus, UniProt P00517); test: Protein Kinase A inhibition assay (PKA), radioactivity-based
T1 construct: PKA (catalytic subunit, bovine heart, Calbiochem 539486); purchased Calbiochem 539486; host or cells: bovine heart (tissue-derived)
Procedure: as §1
Inhibition of Protein Kinase A Activity
The PKA kinase activity assay utilizes a radioactivity-based format in a 96-well PCR plate with radioactive readout. The PKA activity was assayed in a 25 μL assay mixture containing 25 mM HEPES (pH 7.0), 250 μM ATP, 10 mM MgCl2, 1 mM DTT, 1 mM EBTA (pH 8), 2% DMSO, 250 ng/mL Histone H2B (Roche 223 514), and 2 ng/mL PKA (catalytic subunit, bovine heart, Calbiochem 539486, specific activity=1170 μmol/min*μg). Compounds were screened for inhibition of the PKA kinase activity at a concentration of 10 μM. The kinase reaction was allowed to proceed at 37° C. for 30 minutes, then the reaction was stopped by addition of 5 μL of 0.5M EDTA (pH 8). The remainder of the protocol is identical to the one reported for ERK2.

PKC (rat brain) = test: Protein Kinase C inhibition assay (PKC), radioactivity-based
Procedure: as §1
Inhibition of Protein Kinase C Activity
The PKA kinase activity assay utilizes a radioactivity-based format in a 96-well PCR plate with radioactive readout. The PKA activity was assayed in a 25 μL assay mixture containing 25 mM HEPES (pH 7.0), 250 μM ATP, 10 mM MgCl2, 1 mM DTT, 1 mM EDTA (pH 8), 2 mM CaCl2, 2% DMSO, 250 ng/mL Histone H1 (Roche 1 004 875), and 165 ng/mL PKC (rat brain, Calbiochem 539494, specific activity=1600 nmol/min*mg), Compounds were screened for inhibition of the PKC kinase activity at a concentration of 10 μM. The kinase reaction was allowed to proceed at 37° C. for 30 minutes, then the reaction was stopped by addition of 5 μL of 0.5M EDTA (pH 8). The remainder of the protocol is identical to the one reported for ERK2.

GSK3β = molecular target: T2, GSK3β (Homo sapiens, UniProt P49841); test: Glycogen Synthase Kinase 3β inhibition assay, radioactivity-based
T2 construct: purchased Upstate Discovery
Procedure: Inhibition of Glycogen Synthase Kinase 3, Activity
The GSK3, kinase activity assay utilizes a radioactivity-based format in a 96-well PCR plate with radioactive readout. The GSK3β activity was assayed in a 25 μL assay mixture containing 8 mM HEPES (pH 7.0), 250 μM ATP, 0.2 mM EDTA (pH 8), 2% DMSO, 250 ng/mL Myelin Basic Protein (MBP, Sigma M-1891), and 12 ng/mL GSK3 (Upstate Discovery, specific activity=607 nmol/min*GS2 peptide, concentration of 6.05 mg/mL). Compounds were screened for inhibition of the GSK3 P kinase activity at a concentration of 10 μM. The kinase reaction was allowed to proceed at 37° C. for 30 minutes, then the reaction was stopped by addition of 5 μL of 0.5M EDTA (pH 8).

Sequence of His tagged ERK2 (P28482 whole entry): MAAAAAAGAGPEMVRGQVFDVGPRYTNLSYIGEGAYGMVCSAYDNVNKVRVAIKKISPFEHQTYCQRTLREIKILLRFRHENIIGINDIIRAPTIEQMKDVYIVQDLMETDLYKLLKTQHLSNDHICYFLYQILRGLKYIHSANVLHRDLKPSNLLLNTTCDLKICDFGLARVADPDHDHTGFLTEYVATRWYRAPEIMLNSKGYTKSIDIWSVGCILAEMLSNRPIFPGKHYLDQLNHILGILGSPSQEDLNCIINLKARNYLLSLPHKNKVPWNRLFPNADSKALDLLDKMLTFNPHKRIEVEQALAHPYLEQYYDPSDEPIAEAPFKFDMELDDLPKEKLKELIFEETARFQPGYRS
T2 sequence (P49841 whole entry, species assumed): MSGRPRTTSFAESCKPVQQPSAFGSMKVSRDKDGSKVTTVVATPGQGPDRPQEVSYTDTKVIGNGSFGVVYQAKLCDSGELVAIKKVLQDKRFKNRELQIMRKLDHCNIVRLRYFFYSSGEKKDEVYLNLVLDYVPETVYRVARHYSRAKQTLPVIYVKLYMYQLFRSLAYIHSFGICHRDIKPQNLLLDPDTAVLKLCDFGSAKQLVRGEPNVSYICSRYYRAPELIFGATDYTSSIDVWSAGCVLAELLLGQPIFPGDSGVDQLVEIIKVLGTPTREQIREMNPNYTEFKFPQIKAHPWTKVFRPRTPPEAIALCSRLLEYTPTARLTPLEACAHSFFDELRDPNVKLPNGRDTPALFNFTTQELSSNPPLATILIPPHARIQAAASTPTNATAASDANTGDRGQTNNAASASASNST

| Structure (SMILES) | inhibition at 10 µM (His tagged ERK2) [%] | inhibition at 10 µM [1] [%] | % Inhibition PKC (PKC (rat brain)) [%] | inhibition at 10 µM (GSK3β) [%] |
| --- | --- | --- | --- | --- |
| CCOC(=O)N1C(=O)c2c(c3c4ccccc4n(C4C=C[C@H](NC(C)=O)C4)c3c3[nH]c4ccccc4c23)C1=O (mixture of isomers) [NAD117] | 60 |  | 68.74 | 25 |
| O=C1NC(=O)c2c1c1c3ccccc3[nH]c1c1c2c2ccccc2n1C1C=C[C@H](Nc2ccccc2)CC1 (mixture of isomers) [NAD148] | 41.6 | 26.5 | 111.91 | 54.1 |
| O=C1NC(=O)c2c1c1c3ccccc3[nH]c1c1c2c2ccccc2n1C1CC[C@H](O)[C@@H](O)[C@H]1O (mixture of isomers) [NAD149] | 93.3 | 35.2 | 55.37 | 94.1 |
| CN1C(=O)c2c(c3c4ccccc4n(C4C[C@H](O)[C@@H](O)[C@H]4O)c3c3[nH]c4ccccc4c23)C1=O (mixture of isomers) [NAD157] |  |  | 55.37 | 20.2 |
| CC(=O)O[C@H]1CC(n2c3ccccc3c3c4c(c5c6ccccc6[nH]c5c32)C(=O)NC4=O)[C@H](O)[C@@H]1O (mixture of isomers) [NAD160] | 23.3 |  | 72.37 | 30.2 |
| COc1ccc(CN2C(=O)c3c(c4c5ccccc5n(C5CCC(O)CC5)c4c4[nH]c5ccccc5c34)C2=O)cc1 (centres unmarked) [NAD133] |  |  | 102.77 |  |

More lines, now with the values ahead:

| inhibition at 10 µM (His tagged ERK2) [%] | inhibition at 10 µM [1] [%] | % Inhibition PKC (PKC (rat brain)) [%] | inhibition at 10 µM (GSK3β) [%] | Structure (SMILES) |
| --- | --- | --- | --- | --- |
| 84.2 | 18.8 | 45.48 | 83.4 | O=C1NC(=O)c2c1c1c3ccccc3[nH]c1c1c2c2ccccc2n1C1C=C[C@@H](O)C1 (mixture of isomers) [NAD006] |
| 97.8 | 98 | 81.34 | 69.8 | N[C@H]1C=CC(n2c3ccccc3c3c4c(c5c6ccccc6[nH]c5c32)C(=O)NC4=O)C1 (mixture of isomers) [NAD040] |
| 57.2 | 43.4 | 41.98 | 52.2 | O=C1NC(=O)c2c1c1c3ccccc3[nH]c1c1c2c2ccccc2n1C1C=C[C@H](Cl)CC1 (mixture of isomers) [NAD085] |
| 53.4 | 17.1 | 52.00 | 25.4 | CC(=O)O[C@H]1C=CC(n2c3ccccc3c3c4c(c5c6ccccc6[nH]c5c32)C(=O)NC4=O)CC1 (mixture of isomers) [NAD106] |
| 24.3 |  | 67.47 | 18.4 | N[C@@H]1C=CC(n2c3ccccc3c3c4c(c5c6ccccc6[nH]c5c32)C(=O)NC4=O)C1 (mixture of isomers) [NAD116] |
| 43.2 | 17.3 | 84.32 | 60.8 | CC(=O)O[C@@H]1C=CC(n2c3ccccc3c3c4c(c5c6ccccc6[nH]c5c32)C(=O)NC4=O)CC1 (mixture of isomers) [NAD135] |
| 37.4 | 19.9 | 58.82 | 61.2 | O=C1NC(=O)c2c1c1c3ccccc3[nH]c1c1c2c2ccccc2n1C1C=C[C@H](O)C1 (mixture of isomers) [NAD162] |
